The subject of one test is Colo320. In words: cells. The class given is cell-based.
The subject of another test is SW480. As to the kind of experiment: cells. It counts as cell-based.
In a further test the test system is HT-29. As to the kind of experiment: cells. The class given is cell-based. To be noted: for IC50 / Basal_Viability ATP HT-29 IC50/EC50: assay number 28; for IC50: read-out: Basal_Viability ATP HT-29 summarized IC50.
Another test relates to RKO. In words: cells. It counts as cell-based.
For test [1], the system named is HCT116 cells treated with a GSK3β inhibitor. As to the kind of experiment: cells. The class given is cell-based. Conditions: for IC50 / GSK3b inh pretreated_Viability ATP HCT116 IC50/EC50: assay number 26, GSK3b inhibitor pretreated; for IC50: read-out: GSK3b inh pretreated_Viability ATP HCT116 summarized IC50.
The next test concerns HCT116. In words: cells. It counts as cell-based. Conditions: basal.
The subject of another test is SNU-C1. In words: cells. It counts as cell-based. To be noted: assay number 30.
For test [2], the system named is ECFC/ADSC co-culture cell nuclei number.
Test [3] has as its system endothelial tube formation in co-cultures of ECFCs and ADSCs treated with VEGF. In words: cells. It counts as cell-based, human.
The next test deals with DLD-1. As to the kind of experiment: cells. It counts as cell-based.
Another test has as its system HeLa cells. In words: cells. The class given is cell-based.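 For Hela CellCycMod PI 4N summarized IC50: value tracks stimulation of 4N DNA content.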
Where [4] appears, read: assay number 23, concentration response.
[5] abbreviates: assay number 27, concentration response.
Setting [6] is: assay number 29, concentration response.
[7] abbreviates: assay number 25, concentration response.

Like-named read-outs stand apart in the source and are kept apart here. Where only a bound is given, the exact number is not on record here.

With `Oc1ccc(Cl)cc1Cc1ccccc1` [NCGC00091532-06], the IC50 (as a rule, the concentration that inhibits the measured activity by half) in the test with Colo320 (assay number 27, basal, read-out: Basal_Viability ATP Colo 320 summarized IC50) is 13 µM; with SW480 (assay number 24, basal, read-out: Basal_Viability ATP SW480 summarized IC50), more than 20 µM; with HT-29 (basal) it was more than 20 µM; with RKO (assay number 29, basal, read-out: Basal_Viability ATP RKO summarized IC50), more than 20 µM; in test [1] it was more than 6.67 µM; in the test with HCT116 (assay number 25, read-out: Basal_Viability ATP HCT116 summarized IC50), more than 20 µM.
On to `Cc1nc2ccccc2n1Cc1ccc(Cl)cc1` [NCGC00160416-02], for which, in the test on SNU-C1 (basal), the “Basal_Viability ATP SNU-C1 IC50/EC50” value is more than 20 µM. For the same molecule, the “VEGF_ADSC\ECFC Angio Hoechst NucArea IC50/EC50” value in [2] is given as more than 10 µM. Further, the “VEGF_ADSC\ECFC Angio CD31 TubeArea IC50/EC50” value in test [3] is reported as 7.3825 µM. For the same molecule, in the test with DLD-1 (assay number 23, basal), the “Basal_Viability ATP DLD-1 IC50/EC50” value is listed as more than 20 µM. Moreover, the “Basal_Viability ATP Colo 320 IC50/EC50” value in the test on Colo320 (assay number 27, basal) was found to be 15.1764 µM. Also, the “Basal_Viability ATP SW480 IC50/EC50” value in the test on SW480 (assay number 24, basal) amounted to 5.3305 µM. Further, in the test on HeLa cells (assay number 14, 2N), the “Hela CellCycMod PI 2N IC50/EC50” value is more than 10 µM. Moreover, in the test on HeLa cells (assay number 16, 4N), the “Hela CellCycMod PI 4N IC50/EC50” value was more than 10 µM. In the test on HeLa cells (assay number 17, MI), the “Hela CellCycMod PI MI IC50/EC50” value is recorded as more than 10 µM. The “Hela CellCycMod PI Cell Number IC50/EC50” value with HeLa cells (assay number 18, cell number) amounted to 0.03183 µM. The “Basal_Viability ATP HT-29 IC50/EC50” value with HT-29 (basal) was more than 20 µM. Also, the “Basal_Viability ATP HCT116 IC50/EC50” value in the test with HCT116 (assay number 25) is recorded as 1.219 µM.
Consider `CCCCCCCCCCCC[N+](C)(C)Cc1ccccc1` [NCGC00164245-03], for which the half-maximal inhibitory concentration (IC50) with SNU-C1 (basal, read-out: Basal_Viability ATP SNU-C1 summarized IC50) was 0.02 µM; in [2] (read-out: VEGF_ADSC\ECFC Angio Hoechst NucArea summarized IC50), 6.93 µM; in test [3] (read-out: VEGF_ADSC\ECFC Angio CD31 TubeArea summarized IC50) it was more than 10 µM; in the test with DLD-1 (assay number 23, basal, read-out: Basal_Viability ATP DLD-1 summarized IC50) it was 0.738 µM; with HeLa cells (assay number 14, 2N, read-out: Hela CellCycMod PI 2N summarized IC50) it was more than 10 µM; with HeLa cells (assay number 15, S phase, read-out: Hela CellCycMod PI S Phase summarized IC50), more than 10 µM. The IC50 with HeLa cells (assay number 16, 4N, read-out: Hela CellCycMod PI 4N summarized IC50) is more than 10 µM; in the test on HeLa cells (assay number 17, MI, read-out: Hela CellCycMod PI MI summarized IC50), more than 10 µM; in the test on HeLa cells (assay number 18, cell number, read-out: Hela CellCycMod PI Cell Number summarized IC50), more than 10 µM; with HT-29 (basal), 0.465 µM; in test [1], more than 20 µM.
Take `O=C(OCc1ccccc1)c1cccnc1` [NCGC00166105-04]: the “Basal_Viability ATP SNU-C1 IC50/EC50” value in the test with SNU-C1 (concentration response) is more than 20 µM. Moreover, the “VEGF_ADSC\ECFC Angio Hoechst NucArea IC50/EC50” value in test [2] was more than 10 µM. The “VEGF_ADSC\ECFC Angio CD31 TubeArea IC50/EC50” value in test [3] is recorded as more than 10 µM. In addition, in the test on DLD-1 (setting [4]), the “Basal_Viability ATP DLD-1 IC50/EC50” value was more than 20 µM. Also, the “Basal_Viability ATP Colo 320 IC50/EC50” value with Colo320 (setting [5]) is more than 20 µM. The “Basal_Viability ATP RKO IC50/EC50” value with RKO (setting [6]) is reported as more than 20 µM. In addition, the “GSK3b inh pretreated_Viability ATP HCT116 IC50/EC50” value in test [1] (concentration response) is more than 20 µM. For the same molecule, the “Basal_Viability ATP HCT116 IC50/EC50” value in the test on HCT116 (setting [7]) was more than 20 µM.
With `C[S+](CC[C@H](N)C(=O)O)C[C@H]1O[C@@H](n2cnc3c(N)ncnc32)[C@H](O)[C@@H]1O` (stereo partly shown) [NCGC00167546-03], the “Basal_Viability ATP SNU-C1 IC50/EC50” value in the test on SNU-C1 (basal) is on record as more than 20 µM. The “VEGF_ADSC\ECFC Angio Hoechst NucArea IC50/EC50” value in [2] is reported as more than 10 µM. Moreover, the “VEGF_ADSC\ECFC Angio CD31 TubeArea IC50/EC50” value in [3] is reported as more than 10 µM. The “Basal_Viability ATP DLD-1 IC50/EC50” value with DLD-1 (assay number 23, basal) is on record as more than 20 µM. In the test with Colo320 (assay number 27, basal), the “Basal_Viability ATP Colo 320 IC50/EC50” value was more than 20 µM. For the same molecule, the “Basal_Viability ATP SW480 IC50/EC50” value in the test on SW480 (assay number 24, basal) is on record as more than 20 µM. The “Basal_Viability ATP RKO IC50/EC50” value with RKO (assay number 29, basal) is listed as more than 20 µM. Further, the “GSK3b inh pretreated_Viability ATP HCT116 IC50/EC50” value in test [1] is listed as more than 20 µM. Moreover, in the test on HCT116 (assay number 25), the “Basal_Viability ATP HCT116 IC50/EC50” value is listed as more than 20 µM.
In the case of `Clc1ccc(C(Cn2ccnc2)OCc2ccc(Sc3ccccc3)cc2)c(Cl)c1` (stereo not shown) [NCGC00253713-01], the “VEGF_ADSC\ECFC Angio Hoechst NucArea IC50/EC50” value in test [2] was more than 10 µM. Further, in test [3], the “VEGF_ADSC\ECFC Angio CD31 TubeArea IC50/EC50” value is on record as more than 10 µM. Besides, the “Basal_Viability ATP DLD-1 IC50/EC50” value in the test on DLD-1 (assay number 23) is on record as 7.7564 µM. In the test on Colo320 (assay number 27), the “Basal_Viability ATP Colo 320 IC50/EC50” value is on record as 7.0587 µM. The “Basal_Viability ATP SW480 IC50/EC50” value in the test with SW480 (assay number 24) is given as 7.4367 µM. In addition, the “Basal_Viability ATP HT-29 IC50/EC50” value in the test on HT-29 is recorded as more than 20 µM. In the test with RKO (assay number 29), the “Basal_Viability ATP RKO IC50/EC50” value came to 6.141 µM. Also, the “GSK3b inh pretreated_Viability ATP HCT116 IC50/EC50” value in test [1] came to 6.7686 µM. The “Basal_Viability ATP HCT116 IC50/EC50” value with HCT116 (assay number 25) is given as 7.7123 µM.
Regarding `CN1Cc2cc(C(=O)N3CCC(C4CCNCC4)CC3)ccc2N[C@@H](CC(=O)O)C1=O` [NCGC00319023-01], the “Basal_Viability ATP SNU-C1 IC50/EC50” value in the test with SNU-C1 (concentration response) is more than 20 µM. Moreover, the “VEGF_ADSC\ECFC Angio Hoechst NucArea IC50/EC50” value in [2] is given as more than 10 µM. Besides, the “VEGF_ADSC\ECFC Angio CD31 TubeArea IC50/EC50” value in test [3] is more than 10 µM. The “Basal_Viability ATP DLD-1 IC50/EC50” value with DLD-1 (setting [4]) is on record as more than 20 µM. Further, in the test on Colo320 (setting [5]), the “Basal_Viability ATP Colo 320 IC50/EC50” value is on record as more than 20 µM. In the test on SW480 (assay number 24, concentration response), the “Basal_Viability ATP SW480 IC50/EC50” value was more than 20 µM. In the test with RKO (setting [6]), the “Basal_Viability ATP RKO IC50/EC50” value is listed as more than 20 µM. In addition, in [1] (concentration response), the “GSK3b inh pretreated_Viability ATP HCT116 IC50/EC50” value is reported as more than 20 µM. For the same molecule, the “Basal_Viability ATP HCT116 IC50/EC50” value with HCT116 (setting [7]) is on record as more than 20 µM.
As for `Cc1cc(-c2ccc(N=Nc3c(S(=O)(=O)O)cc4cc(S(=O)(=O)O)cc(N)c4c3O)c(C)c2)ccc1N=Nc1c(S(=O)(=O)O)cc2cc(S(=O)(=O)O)cc(N)c2c1O` [NCGC00344528-01], the “IC50/EC50, VEGF_ADSC\ECFC Angio Hoechst NucArea (assay number 3)” value in test [2] was more than 10 µM. The “IC50/EC50, VEGF_ADSC\ECFC Angio CD31 TubeArea (assay number 2)” value in test [3] was more than 10 µM. In addition, the “IC50/EC50, Basal_Viability ATP DLD-1 (assay number 23)” value in the test on DLD-1 (basal) is more than 20 µM. The “IC50/EC50, Basal_Viability ATP Colo 320 (assay number 27)” value with Colo320 (basal) is more than 20 µM. Further, the “IC50/EC50, Basal_Viability ATP SW480 (assay number 24)” value with SW480 (basal) is reported as more than 20 µM. Further, in the test with HT-29 (basal), the “IC50/EC50, Basal_Viability ATP HT-29 (assay number 28)” value is more than 20 µM. In the test with RKO (basal), the “IC50/EC50, Basal_Viability ATP RKO (assay number 29)” value is more than 20 µM. Further, the “IC50/EC50, GSK3b inh pretreated_Viability ATP HCT116 (assay number 26)” value in [1] (GSK3b inh pretreated) is on record as more than 20 µM. Moreover, the “IC50/EC50, Basal_Viability ATP HCT116 (assay number 25)” value in the test on HCT116 is given as more than 20 µM.

Values taken from article PMC4503722, “Novel Phenotypic Outcomes Identified for a Public Collection of Approved Drugs from a Publicly Accessible Panel of Assays” (PLoS ONE, 2015).
